The values below come from patent US10259818B2, “Bicyclic azaheterocyclobenzylamines as PI3K inhibitors” (Incyte Corporation, priority 2012, dated 2019).

Structures can show the parent of a compound that is named as a salt. Some results are limits rather than exact numbers.

For one test, the system named is SUDHL-6 cell line (diffuse large B cell lymphoma). In words: SUDHL-6 cell proliferation assay (Example B3). In kind it is cell-based. As to conditions: Homo sapiens, SU-DHL-6, 72 h, SUDHL-6 cells, 3 days, Cell Titer-GLO. As to the method: Example B3: SUDHL-6 Cell Proliferation Assay
SUDHL-6 cell line (diffuse large B cell lymphoma) was purchased from ATCC (Manassas, Va.) and maintained in the culture medium recommended (RPMI and 10% FBS). To measure the anti-proliferation activity of the compounds through ATP quantitation, the SUDHL-6 cells was plated with the culture medium (5000 cells/well/per 200 μl) into 96-well polystyrene clear black tissue culture plate (Greiner-bio-one through VWR, NJ) in the presence or absence of a concentration range of test compounds. After 3 days, Cell Titer-GLO Luminescent (Promega, Madison, Wis.) cell culture agent was added to each well for 10 minutes at room temperature to stabilize the luminescent signal. This determines the number of viable cells in culture based on quantitation of the ATP present, which signals the presence of metabolically active cells. Luminescence was measured with the TopCount 384 (Packard Bioscience through Perkin Elmer, Boston, Mass.). […] IC50 data for the Examples is presented in Table 4 determined by the assay of Example B3.
As to `COC(=O)N1CC(N2Cc3c(F)c(Cl)cc(C(C)n4nc(C)c5c(N)ncnc54)c3OC(C)C2)C1` (single isomer, unassigned) [Example 80, methyl 3-[9-[1-(4-amino-3-methyl-1H-pyrazolo[3,4-d]pyrimidin-1-yl)ethyl]-7-chloro-6-fluoro-2-methyl-2,3-dihydro-1,4-benzoxazepin-4(5H)-yl]azetidine-1-carboxylate], the 50% inhibitory concentration (IC50) is not above 500 nM.

Molecule `CC(=O)N1CC(N2CCOc3c(C(C)n4nc(C)c5c(N)ncnc54)cc(Cl)c(C#N)c3C2)C1` (stereo not drawn) [Example 46, 4-(1-Acetylazetidin-3-yl)-9-[1-(4-amino-3-methyl-1H-pyrazolo [3,4-d]pyrimidin-1-yl)ethyl]-7-chloro-2,3,4,5-tetrahydro-1,4-benzoxazepine-6-carbonitrile] displayed an IC50 not above 500 nM.

`CCC(=O)N1CC(N2CCOc3c(C(C)n4nc(C)c5c(N)ncnc54)cc(Cl)c(C#N)c3C2)C1` (stereo not drawn) [Example 89, 9-[1-(4-amino-3-methyl-1H-pyrazolo[3,4-d]pyrimidin-1-yl)ethyl]-7-chloro-4-(1-propionylazetidin-3-yl)-2,3,4,5-tetrahydro-1,4-benzoxazepine-6-carbonitrile] showed an IC50 not above 500 nM.

As for `Cc1nn(C(C)c2cc(Cl)c(C#N)c3c2OC(C)CN(CC(C)(C)O)C3)c2ncnc(N)c12` (single isomer, unassigned) [Example 65, 9-[1-(4-Amino-3-methyl-1H-pyrazolo[3,4-d]pyrimidin-1-yl)ethyl]-7-chloro-4-(2-hydroxy-2-methylpropyl)-2-methyl-2,3,4,5-tetrahydro-1,4-benzoxazepine-6-carbonitrile], the IC50 is not above 500 nM.

On to `CNC(=O)C1CC(N2Cc3c(C#N)c(Cl)cc(C(C)n4nc(C)c5c(N)ncnc54)c3OC(C)C2)C1` (single isomer, unassigned) [Example 114, 3-[9-[1-(4-amino-3-methyl-1H-pyrazolo[3,4-d]pyrimidin-1-yl)ethyl]-7-chloro-6-cyano-2-methyl-2,3-dihydro-1,4-benzoxazepin-4(5H)-yl]-N-methylcyclobutane-carboxamide], for which the IC50 is not above 500 nM.

As for `Cc1c(Cl)cc(C(C)n2nc(C)c3c(N)ncnc32)c2c1CN(S(C)(=O)=O)CCO2` (stereo not drawn) [Example 13, 1-{1-[7-Chloro-6-methyl-4-(methylsulfonyl)-2,3,4,5-tetrahydro-1,4-benzoxazepin-9-yl]ethyl}-3-methyl-1H-pyrazolo[3,4-d]pyrimidin-4-amine Trifluoroacetate], the IC50 was not above 500 nM.

Molecule `Cc1nn(C(C)c2cc(Cl)c(C#N)c3c2OC(C)CN(Cc2cccnc2)C3)c2ncnc(N)c12` (single isomer, unassigned) [Example 60, 9-[1-(4-Amino-3-methyl-1H-pyrazolo[3,4-d]pyrimidin-1-yl)ethyl]-7-chloro-2-methyl-4-(pyridin-3-ylmethyl)-2,3,4,5-tetrahydro-1,4-benzoxazepine-6-carbonitrile] came in with an IC50 not above 500 nM.

In turn, `Cc1c(Cl)cc(C(C)n2nc(C)c3c(N)ncnc32)c2c1CN(C1CN(C(=O)OC(C)(C)C)C1)CCO2` (stereo not drawn) [Example 3, tert-Butyl 3-[9-[1-(4-amino-3-methyl-1H-pyrazolo[3,4-d]pyrimidin-1-yl)ethyl]-7-chloro-6-methyl-2,3-dihydro-1,4-benzoxazepin-4(5H)-yl]azetidine-1-carboxylate] had an IC50 not above 500 nM.

For the molecule `CCC1CN(CCO)Cc2c(C#N)c(Cl)cc(C(C)n3nc(C)c4c(N)ncnc43)c2O1` (single isomer, unassigned) [Example 69, 9-[1-(4-Amino-3-methyl-1H-pyrazolo[3,4-d]pyrimidin-1-yl)ethyl]-7-chloro-2-ethyl-4-(2-hydroxyethyl)-2,3,4,5-tetrahydro-1,4-benzoxazepine-6-carbonitrile], the IC50 was not above 500 nM.

The molecule `CCC(=O)N1CC(N2Cc3c(F)c(Cl)cc(C(C)n4nc(C)c5c(N)ncnc54)c3OC(C)C2)C1` (stereo not drawn) [Example 76, 1-{1-[7-chloro-6-fluoro-2-methyl-4-(1-propionylazetidin-3-yl)-2,3,4,5-tetrahydro-1,4-benzoxazepin-9-yl]ethyl}-3-methyl-1H-pyrazolo[3,4-d]pyrimidin-4-amine] registered an IC50 not above 500 nM.

`Cc1c(Cl)cc(C(C)n2nc(C)c3c(N)ncnc32)c2c1CN(C(=O)CC#N)CCO2` (stereo not drawn) [Example 12, 3-[9-[1-(4-Amino-3-methyl-1H-pyrazolo[3,4-d]pyrimidin-1-yl)ethyl]-7-chloro-6-methyl-2,3-dihydro-1,4-benzoxazepin-4(5H)-yl]-3-oxopropanenitrile trifluoroacetate] registered an IC50 not above 500 nM.

In the case of `CC(=O)N1CC(N2Cc3c(C#N)c(Cl)cc(C(C)n4nc(C)c5c(N)ncnc54)c3OC(C)C2)C1` (single isomer, unassigned) [Example 48, 4-(1-Acetylazetidin-3-yl)-9-[1-(4-amino-3-methyl-1H-pyrazolo [3,4-d]pyrimidin-1-yl)ethyl]-7-chloro-2-methyl-2,3,4,5-tetrahydro-1,4-benzoxazepine-6-carbonitrile], the IC50 fell in the range of 500 to 1000 nM.

`Cc1nn(C(C)c2cc(Cl)c(F)c3c2OC[C@H](C)N(S(C)(=O)=O)C3)c2ncnc(N)c12` (single isomer, unassigned) [Example 35]: the IC50 is not above 500 nM.

For the molecule `COCC(=O)N1CCOc2c(C(C)n3nc(C)c4c(N)ncnc43)cc(Cl)c(C)c2C1` (stereo not drawn) [Example 21, 1-{1-[7-Chloro-4-(methoxyacetyl)-6-methyl-2,3,4,5-tetrahydro-1,4-benzoxazepin-9-yl]ethyl}-3-methyl-1H-pyrazolo[3,4-d]pyrimidin-4-amine Trifluoroacetate], the half-inhibitory concentration (IC50) was not above 500 nM.

`Cc1nn(C(C)c2cc(Cl)c(C#N)c3c2OCCN(C2CN(CCO)C2)C3)c2ncnc(N)c12` (stereo not drawn) [Example 47, 9-[1-(4-amino-3-methyl-1H-pyrazolo[3,4-d]pyrimidin-1-yl)ethyl]-7-chloro-4-[1-(2-hydroxyethyl)azetidin-3-yl]-2,3,4,5-tetrahydro-1,4-benzoxazepine-6-carbonitrile] displayed a half-maximal inhibitory concentration (IC50) not above 500 nM.

In turn, `Cc1nn(C(C)c2cc(Cl)c(F)c3c2O[C@@H](C)CN(C2CN(CC(N)=O)C2)C3)c2ncnc(N)c12` (single isomer, unassigned) [Example 88] showed an IC50 not above 500 nM.

On to `Cc1c(Cl)cc(C(C)n2nc(C)c3c(N)ncnc32)c2c1CN(C1CCC1)CCO2` (stereo not drawn) [Example 5, 1-[1-(7-Chloro-4-cyclobutyl-6-methyl-2,3,4,5-tetrahydro-1,4-benzoxazepin-9-yl)ethyl]-3-methyl-1H-pyrazolo[3,4-d]pyrimidin-4-amine bis(trifluoroacetate)], for which the IC50 was not above 500 nM.

As for `Cc1c(Cl)cc(C(C)n2nc(C)c3c(N)ncnc32)c2c1CN(S(=O)(=O)C1CC1)CCO2` (stereo not drawn) [Example 18, 1-{1-[7-Chloro-4-(cyclopropylsulfonyl)-6-methyl-2,3,4,5-tetrahydro-1,4-benzoxazepin-9-yl]ethyl}-3-methyl-1H-pyrazolo[3,4-d]pyrimidin-4-amine Trifluoroacetate], the IC50 was 500 to 1000 nM.

As to `Cc1nn(C(C)c2cc(Cl)c(C#N)c3c2OC(C)CN(C2CN(CC(N)=O)C2)C3)c2ncnc(N)c12` (single isomer, unassigned) [Example 50, 2-{3-[9-[1-(4-Amino-3-methyl-1H-pyrazolo[3,4-d]pyrimidin-1-yl)ethyl]-7-chloro-6-cyano-2-methyl-2,3-dihydro-1,4-benzoxazepin-4(5H)-yl]azetidin-1-yl}acetamide], the IC50 is not above 500 nM.

Still in this test, the particulars now being: SUDHL-6 cells, 3 days, Cell Titer-GLO.
Take `CCNC(=O)N1CC(N2Cc3c(C#N)c(Cl)cc(C(C)n4nc(C)c5c(N)ncnc54)c3OC(C)C2)C1` (single isomer, unassigned) [Example 98, 3-[9-[1-(4-amino-3-methyl-1H-pyrazolo[3,4-d]pyrimidin-1-yl)ethyl]-7-chloro-6-cyano-2-methyl-2,3-dihydro-1,4-benzoxazepin-4(5H)-yl]-N-ethylazetidine-1-carboxamide]: the half-inhibitory concentration (IC50) is not above 500 nM.

`Cc1nn(C(C)c2cc(Cl)c(C#N)c3c2OC(C)CN(C2CN(S(C)(=O)=O)C2)C3)c2ncnc(N)c12` (single isomer, unassigned) [Example 94, 9-[1-(4-amino-3-methyl-1H-pyrazolo[3,4-d]pyrimidin-1-yl)ethyl]-7-chloro-2-methyl-4-[1-(methylsulfonyl)azetidin-3-yl]-2,3,4,5-tetrahydro-1,4-benzoxazepine-6-carbonitrile]: the IC50 was not above 500 nM.

In turn, `Cc1nn(C(C)c2cc(Cl)c(C#N)c3c2OC(C)CN(CC(C)(C)O)C3)c2ncnc(N)c12` (single isomer, unassigned) [Example 66, 9-[1-(4-Amino-3-methyl-1H-pyrazolo[3,4-d]pyrimidin-1-yl)ethyl]-7-chloro-4-(2-hydroxy-2-methylpropyl)-2-methyl-2,3,4,5-tetrahydro-1,4-benzoxazepine-6-carbonitrile] returned an IC50 not above 500 nM.

For the molecule `Cc1nn(C(C)c2cc(Cl)c(F)c3c2OC(C)CN(C2CN(C(N)=O)C2)C3)c2ncnc(N)c12` (single isomer, unassigned) [Example 84, 3-[9-[1-(4-amino-3-methyl-1H-pyrazolo[3,4-d]pyrimidin-1-yl)ethyl]-7-chloro-6-fluoro-2-methyl-2,3-dihydro-1,4-benzoxazepin-4(5H)-yl]azetidine-1-carboxamide], the IC50 was not above 500 nM.

Molecule `CCOC(=O)N1CC(N2Cc3c(C#N)c(Cl)cc(C(C)n4nc(C)c5c(N)ncnc54)c3OC(C)C2)C1` (single isomer, unassigned) [Example 100, ethyl 3-[9-[1-(4-amino-3-methyl-1H-pyrazolo[3,4-d]pyrimidin-1-yl)ethyl]-7-chloro-6-cyano-2-methyl-2,3-dihydro-1,4-benzoxazepin-4(5H)-yl]azetidine-1-carboxylate] had a 50% inhibitory concentration (IC50) not above 500 nM.
